US11419869B2, “Dosage forms and regimens for amino acid compounds” (Pliant Therapeutics, Inc., priority 2019, dated 2022)

Each compound was assayed against recombinant human integrin αvβ6 (Homo sapiens (Human), UniProt P06756+P18564) (assay: Solid Phase Integrin αvβ6 Binding Assay (Examples B1, B2)). Conditions: TGFβ1 LAP ligand, values given in four ranges, read-out: αvβ6 Inhibition IC50 (nM)-range.
Outline: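 Plates coated with recombinant human αvβ6 (2 μg/mL) compete compound against recombinant TGFβ1 LAP (0.67 μg/mL) in TBS binding buffer with 0.5 mM MnCl2, 2 h at 25 °C. Bound LAP detected with biotin-anti-hLAP and peroxidase-streptavidin; IC50 by four-parameter logistic regression.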

recombinant human integrin αvβ6, sequence (P06756 31-992): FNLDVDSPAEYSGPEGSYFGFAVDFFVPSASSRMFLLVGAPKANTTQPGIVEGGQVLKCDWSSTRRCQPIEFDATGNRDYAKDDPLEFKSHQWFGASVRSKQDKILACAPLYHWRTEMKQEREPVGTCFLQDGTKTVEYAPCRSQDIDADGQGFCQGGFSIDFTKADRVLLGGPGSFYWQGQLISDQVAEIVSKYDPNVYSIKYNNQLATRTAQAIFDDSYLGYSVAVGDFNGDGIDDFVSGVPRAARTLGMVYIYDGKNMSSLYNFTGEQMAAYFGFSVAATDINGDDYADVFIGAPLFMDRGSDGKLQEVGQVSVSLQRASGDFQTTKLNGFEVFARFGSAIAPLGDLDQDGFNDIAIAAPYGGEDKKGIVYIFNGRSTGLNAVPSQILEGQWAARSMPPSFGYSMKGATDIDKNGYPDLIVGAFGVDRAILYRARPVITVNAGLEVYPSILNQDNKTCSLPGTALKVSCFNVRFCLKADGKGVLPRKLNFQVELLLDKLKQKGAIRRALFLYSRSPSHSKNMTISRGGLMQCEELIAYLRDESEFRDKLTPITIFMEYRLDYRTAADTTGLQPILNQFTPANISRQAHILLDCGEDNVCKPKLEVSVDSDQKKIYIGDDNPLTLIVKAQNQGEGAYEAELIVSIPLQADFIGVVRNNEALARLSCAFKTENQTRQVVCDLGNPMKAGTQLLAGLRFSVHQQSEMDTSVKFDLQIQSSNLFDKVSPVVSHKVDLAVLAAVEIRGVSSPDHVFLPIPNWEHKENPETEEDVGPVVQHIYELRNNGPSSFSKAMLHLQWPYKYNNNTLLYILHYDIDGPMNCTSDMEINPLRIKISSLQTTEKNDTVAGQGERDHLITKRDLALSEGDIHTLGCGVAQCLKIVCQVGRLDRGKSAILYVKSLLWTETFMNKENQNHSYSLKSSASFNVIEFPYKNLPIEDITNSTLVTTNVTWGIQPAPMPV
recombinant human integrin αvβ6, sequence (P18564 22-707): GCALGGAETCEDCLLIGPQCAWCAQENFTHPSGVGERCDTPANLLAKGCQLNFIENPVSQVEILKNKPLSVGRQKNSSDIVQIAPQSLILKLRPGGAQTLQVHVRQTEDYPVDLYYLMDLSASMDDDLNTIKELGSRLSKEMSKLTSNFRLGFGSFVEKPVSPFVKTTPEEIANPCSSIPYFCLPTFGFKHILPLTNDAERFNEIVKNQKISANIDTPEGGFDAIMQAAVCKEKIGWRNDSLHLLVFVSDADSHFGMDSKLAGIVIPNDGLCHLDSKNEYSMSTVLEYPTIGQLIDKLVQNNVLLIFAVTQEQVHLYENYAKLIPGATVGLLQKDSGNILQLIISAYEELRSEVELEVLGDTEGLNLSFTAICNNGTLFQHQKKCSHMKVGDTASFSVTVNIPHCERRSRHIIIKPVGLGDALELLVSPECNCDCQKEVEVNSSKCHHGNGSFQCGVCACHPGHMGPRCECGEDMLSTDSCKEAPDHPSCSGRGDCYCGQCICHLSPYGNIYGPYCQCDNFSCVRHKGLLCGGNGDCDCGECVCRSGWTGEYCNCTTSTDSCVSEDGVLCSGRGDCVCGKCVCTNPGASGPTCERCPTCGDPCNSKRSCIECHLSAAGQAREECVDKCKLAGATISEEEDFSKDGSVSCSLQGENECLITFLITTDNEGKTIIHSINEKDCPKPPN

IC50, < 50 nM:
Cc1nc(N[C@@H](CCN(CCCCc2ccc3c(n2)NCCC3)CCOc2cccnc2C)C(=O)O)c2ccc(F)cc2n1 [Compound 53, (S)-2-((7-fluoro-2-methylquinazolin-4-yl)amino)-4-((2-((2-methylpyridin-3-yl)oxy)ethyl) (4-(5,6,7,8-tetrahydro-1,8-naphthyridin-2-yl)butyl)amino) butanoic acid]
Cc1ncccc1OCCN(CCCCc1ccc2c(n1)NCCC2)CC[C@H](Nc1ncnc2cccnc12)C(=O)O [Compound 54, (S)-4-((2-((2-methylpyridin-3-yl)oxy)ethyl) (4-(5,6,7,8-tetrahydro-1,8-naphthyridin-2-yl)butyl)amino)-2-(pyrido[3,2-d]pyrimidin-4-ylamino) butanoic acid]
CCOCCN(CCCCc1ccc2c(n1)NCCC2)CC[C@H](Nc1ncnc2ccccc12)C(=O)O [Compound 55, (S)-4-((2-ethoxyethyl) (4-(5,6,7,8-tetrahydro-1,8-naphthyridin-2-yl)butyl)amino)-2-(quinazolin-4-ylamino) butanoic acid]
Cc1ccc(OCCN(CCCCc2ccc3c(n2)NCCC3)CC[C@H](Nc2nc(C)nc3cc(F)ccc23)C(=O)O)cn1 [Compound 56, (S)-2-((7-fluoro-2-methylquinazolin-4-yl)amino)-4-((2-((6-methylpyridin-3-yl)oxy)ethyl) (4-(5,6,7,8-tetrahydro-1,8-naphthyridin-2-yl)butyl)amino) butanoic acid]
Cc1ccc(OCCN(CCCCc2ccc3c(n2)NCCC3)CC[C@H](Nc2ncnc3cccnc23)C(=O)O)cn1 [Compound 57, (S)-4-((2-((6-methylpyridin-3-yl)oxy)ethyl) (4-(5,6,7,8-tetrahydro-1,8-naphthyridin-2-yl)butyl)amino)-2-(pyrido[3,2-d]pyrimidin-4-ylamino) butanoic acid]
O=C(O)[C@H](CCN(CCCCc1ccc2c(n1)NCCC2)CCOc1cncc(F)c1)Nc1ncnc2ccccc12 [Compound 58, (S)-4-((2-((5-fluoropyridin-3-yl)oxy)ethyl) (4-(5,6,7,8-tetrahydro-1,8-naphthyridin-2-yl)butyl)amino)-2-(quinazolin-4-ylamino) butanoic acid]
Cc1ccc(OCCN(CCCCc2ccc3c(n2)NCCC3)CC[C@H](Nc2ncnc3ccccc23)C(=O)O)cn1 [Compound 59, (S)-4-((2-((6-methylpyridin-3-yl)oxy)ethyl) (4-(5,6,7,8-tetrahydro-1,8-naphthyridin-2-yl)butyl)amino)-2-(quinazolin-4-ylamino) butanoic acid]
O=C(O)[C@H](CCN(CCCCc1ccc2c(n1)NCCC2)CCOc1cncc(F)c1)Nc1ncnc2cccnc12 [Compound 60, (S)-4-((2-((5-fluoropyridin-3-yl)oxy)ethyl) (4-(5,6,7,8-tetrahydro-1,8-naphthyridin-2-yl)butyl)amino)-2-(pyrido[3,2-d]pyrimidin-4-ylamino) butanoic acid]
Cc1nc(N[C@@H](CCN(CCCCc2ccc3c(n2)NCCC3)CCOc2cncc(F)c2)C(=O)O)c2ccc(F)cc2n1 [Compound 61, (S)-2-((7-fluoro-2-methylquinazolin-4-yl)amino)-4-((2-((5-fluoropyridin-3-yl)oxy)ethyl) (4-(5,6,7,8-tetrahydro-1,8-naphthyridin-2-yl)butyl)amino) butanoic acid]
CO[C@H](C)CN(CCCCc1ccc2c(n1)NCCC2)CC[C@H](Nc1ncnc2ccccc12)C(=O)O [Compound 62, (S)-4-(((R)-2-methoxypropyl) (4-(5,6,7,8-tetrahydro-1,8-naphthyridin-2-yl)butyl)amino)-2-(quinazolin-4-ylamino) butanoic acid]
CC(=O)NCCN(CCCCc1ccc2c(n1)NCCC2)CC[C@H](Nc1ncnc2ccccc12)C(=O)O [Compound 63, (S)-4-((2-acetamidoethyl) (4-(5,6,7,8-tetrahydro-1,8-naphthyridin-2-yl)butyl)amino)-2-(quinazolin-4-ylamino) butanoic acid]
